Patent publication US20140058103A1, “Inhibitors of PI3K-Delta and Methods of Their Use and Manufacture” (Exelixis, Inc., priority 2010, published 2014)

biological target: PI3K delta (Homo sapiens, UniProt O00329); assay: Luciferase-coupled chemiluminescence kinase assay (ATP consumption, KinaseGlo); format: biochemical
Procedure, shortened: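 Compound, kinase and ATP (≤ KM) reacted 2 h at ambient temperature, then remaining ATP quantified with luciferase-luciferin (KinaseGlo) luminescence as percent consumed.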

Chain of PI3K delta (O00329 whole entry): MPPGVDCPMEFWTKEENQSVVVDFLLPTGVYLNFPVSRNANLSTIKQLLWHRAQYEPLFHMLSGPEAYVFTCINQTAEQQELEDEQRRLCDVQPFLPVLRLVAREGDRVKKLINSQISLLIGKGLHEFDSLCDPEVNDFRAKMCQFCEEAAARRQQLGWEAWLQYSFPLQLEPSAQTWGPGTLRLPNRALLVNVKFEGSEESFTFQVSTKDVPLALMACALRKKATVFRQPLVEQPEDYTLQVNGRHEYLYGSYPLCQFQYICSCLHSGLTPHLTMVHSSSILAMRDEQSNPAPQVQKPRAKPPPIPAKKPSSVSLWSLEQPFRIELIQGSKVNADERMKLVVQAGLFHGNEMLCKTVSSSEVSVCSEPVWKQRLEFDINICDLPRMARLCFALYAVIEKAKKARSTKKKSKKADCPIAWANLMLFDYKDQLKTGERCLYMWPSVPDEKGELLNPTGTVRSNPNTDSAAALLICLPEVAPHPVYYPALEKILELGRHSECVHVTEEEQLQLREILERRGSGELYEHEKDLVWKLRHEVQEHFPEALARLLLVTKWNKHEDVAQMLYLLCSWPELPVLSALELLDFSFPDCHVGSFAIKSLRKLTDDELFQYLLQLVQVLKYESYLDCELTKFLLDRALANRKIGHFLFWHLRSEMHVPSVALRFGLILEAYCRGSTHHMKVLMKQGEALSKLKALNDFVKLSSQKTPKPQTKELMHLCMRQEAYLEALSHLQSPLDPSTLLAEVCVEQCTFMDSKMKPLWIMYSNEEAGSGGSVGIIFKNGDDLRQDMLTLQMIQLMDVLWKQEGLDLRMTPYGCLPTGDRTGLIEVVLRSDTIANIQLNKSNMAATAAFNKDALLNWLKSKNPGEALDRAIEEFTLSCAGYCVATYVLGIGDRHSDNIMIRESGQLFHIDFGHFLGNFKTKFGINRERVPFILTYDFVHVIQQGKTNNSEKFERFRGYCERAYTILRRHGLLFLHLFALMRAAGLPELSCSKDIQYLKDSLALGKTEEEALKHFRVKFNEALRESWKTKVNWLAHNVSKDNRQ
Chain of PI3K delta (P27986 whole entry partner): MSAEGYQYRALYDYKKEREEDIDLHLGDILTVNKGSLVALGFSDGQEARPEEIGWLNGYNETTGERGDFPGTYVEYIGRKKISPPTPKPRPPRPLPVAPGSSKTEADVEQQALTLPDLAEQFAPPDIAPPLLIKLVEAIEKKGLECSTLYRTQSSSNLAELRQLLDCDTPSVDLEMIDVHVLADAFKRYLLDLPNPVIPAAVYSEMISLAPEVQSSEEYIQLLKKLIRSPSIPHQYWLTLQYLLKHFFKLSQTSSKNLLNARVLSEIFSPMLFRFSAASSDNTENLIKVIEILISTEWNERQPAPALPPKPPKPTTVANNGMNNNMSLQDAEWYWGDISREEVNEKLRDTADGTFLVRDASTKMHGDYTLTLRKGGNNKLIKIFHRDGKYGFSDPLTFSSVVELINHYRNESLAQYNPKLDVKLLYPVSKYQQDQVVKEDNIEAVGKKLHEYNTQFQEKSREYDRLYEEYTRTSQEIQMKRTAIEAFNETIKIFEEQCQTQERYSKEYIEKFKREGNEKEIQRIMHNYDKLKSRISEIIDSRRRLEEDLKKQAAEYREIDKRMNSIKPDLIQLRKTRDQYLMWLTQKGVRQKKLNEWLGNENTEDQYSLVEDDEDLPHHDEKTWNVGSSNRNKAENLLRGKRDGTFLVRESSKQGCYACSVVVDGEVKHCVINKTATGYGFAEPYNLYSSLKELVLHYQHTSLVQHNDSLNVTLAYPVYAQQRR

SMILES	IC50
CCn1c(-c2ccc(C(F)(F)F)nc2)nc2c(N3CCC(n4c(=O)[nH]c5ccccc54)CC3)ncnc21 [Compound 314, 1-(1-{9-ethyl-8-[6-(trifluoromethyl)pyridin-3-yl]-9H-purin-6-yl}piperidin-4-yl)-1,3-dihydro-2H-benzimidazol-2-one]	< 50 nM
Cn1c(-c2ccc(C(F)(F)F)nc2)nc2c(N3CCC(n4c(=O)[nH]c5ncccc54)CC3)ncnc21 [Compound 315, 1-(1-{9-methyl-8-[6-(trifluoromethyl)pyridin-3-yl]-9H-purin-6-yl}piperidin-4-yl)-1,3-dihydro-2H-imidazo[4,5-b]pyridin-2-one]	< 50 nM
CCn1c(-c2ccnnc2)nc2c(N3CCC4(CC3)C(=O)Nc3ccccc34)ncnc21 [Compound 316, 1′-(9-ethyl-8-pyridazin-4-yl-9H-purin-6-yl)spiro[indole-3,4′-piperidin]-2(1H)-one]	< 50 nM
COC(=O)[C@H]1CN(c2ncnc3c2nc(-c2cnn(C)c2)n3C)CC[C@H]1n1c(=O)[nH]c2ccccc21 [Compound 317, methyl (3S,4R)-1-[9-methyl-8-(1-methyl-1H-pyrazol-4-yl)-9H-purin-6-yl]-4-(2-oxo-2,3-dihydro-1H-benzimidazol-1-yl)piperidine-3-carboxylate]	500 to 1500 nM
CCn1c(C(=O)NCC(F)(F)F)nc2c(N3CCC(n4c(=O)[nH]c5ncccc54)CC3)ncnc21 [Compound 318, 9-ethyl-6-[4-(2-oxo-2,3-dihydro-1H-imidazo[4,5-b]pyridin-1-yl)piperidin-1-yl]-N-(2,2,2-trifluoroethyl)-9H-purine-8-carboxamide]	< 50 nM
Cn1c(C(=O)NCC(F)(F)F)nc2c(N3CCC(n4c(=O)[nH]c5ncccc54)CC3)ncnc21 [Compound 319, 9-methyl-6-[4-(2-oxo-2,3-dihydro-1H-imidazo[4,5-b]pyridin-1-yl)piperidin-1-yl]-N-(2,2,2-trifluoroethyl)-9H-purine-8-carboxamide]	< 50 nM
CCn1c(-c2cnc(N(C)C)nc2)nc2c(N3CCC(n4c(=O)[nH]c5ccccc54)CC3)ncnc21 [Compound 320, 1-[1-{8-[2-(dimethylamino)pyrimidin-5-yl]-9-ethyl-9H-purin-6-yl)piperidin-4-yl)-1,3-dihydro-2H-benzimidazol-2-one]	< 50 nM
CCn1c(-c2cnc(OC)nc2OC)nc2c(N3CCC(n4c(=O)[nH]c5ccccc54)CC3)ncnc21 [Compound 321, 1-(1-{8-[2,4-bis(methyloxy)pyrimidin-5-yl]-9-ethyl-9H-purin-6-yl}piperidin-4-yl)-1,3-dihydro-2H-benzimidazol-2-one]	500 to 1500 nM
CCn1cc(-c2nc3c(N4CCC(n5c(=O)[nH]c6ncccc65)CC4)ncnc3n2C)cn1 [Compound 322, 1-{1-[8-(1-ethyl-1H-pyrazol-4-yl)-9-methyl-9H-purin-6-yl]piperidin-4-yl}-1,3-dihydro-2H-imidazo[4,5-b]pyridin-2-one]	< 50 nM
CCn1c(-c2cnn(C)c2)nc2c(N3CCC(n4c(=O)[nH]c5ncccc54)CC3)ncnc21 [Compound 323, 1-{1-[9-ethyl-8-(1-methyl-1H-pyrazol-4-yl)-9H-purin-6-yl]piperidin-4-yl}-1,3-dihydro-2H-imidazo[4,5-b]pyridin-2-one]	< 50 nM
CCn1c(-c2ccc(C(F)(F)F)nc2)nc2c(N3CCC4(CC3)C(=O)Nc3ccccc34)ncnc21 [Compound 324, 1′-{9-ethyl-8-[6-(trifluoromethyl)pyridin-3-yl]-9H-purin-6-yl}spiro[indole-3,4′-piperidin]-2(1H)-one]	< 50 nM
CCn1cc(-c2nc3c(N4CCC(n5c(=O)[nH]c6ncccc65)CC4)ncnc3n2CC)cn1 [Compound 325, 1-{1-[9-ethyl-8-(1-ethyl-1H-pyrazol-4-yl)-9H-purin-6-yl]piperidin-4-yl}-1,3-dihydro-2H-imidazo[4,5-b]pyridin-2-one]	< 50 nM
CCn1c(-c2ccc(C(F)(F)F)nc2)nc2c(N3CCC(n4c(=O)[nH]c5ncccc54)CC3)ncnc21 [Compound 326, 1-(1-{9-ethyl-8-[6-(trifluoromethyl)pyridin-3-yl]-9H-purin-6-yl}piperidin-4-yl)-1,3-dihydro-2H-imidazo[4,5-b]pyridin-2-one]	< 50 nM
Cn1c(-c2ccc(C(F)(F)F)nc2)nc2c(N3CCC4(CC3)C(=O)Nc3ccccc34)ncnc21 [Compound 327, 1′-{9-methyl-8-[6-(trifluoromethyl)pyridin-3-yl]-9H-purin-6-yl}spiro[indole-3,4′-piperidin]-2(1H)-one]	< 50 nM
CCn1c(C(=O)N[C@H]2CC[C@H](O)CC2)nc2c(N3CCC(n4c(=O)[nH]c5ncccc54)CC3)ncnc21 [Compound 328, 9-ethyl-N-(trans-4-hydroxycyclohexyl)-6-[4-(2-oxo-2,3-dihydro-1H-imidazo[4,5-b]pyridin-1-yl)piperidin-1-yl]-9H-purine-8-carboxamide]	< 50 nM
Cn1c(C(=O)N[C@H]2CC[C@H](O)CC2)nc2c(N3CCC(n4c(=O)[nH]c5ncccc54)CC3)ncnc21 [Compound 329, N-(trans-4-hydroxycyclohexyl)-9-methyl-6-[4-(2-oxo-2,3-dihydro-1H-imidazo[4,5-b]pyridin-1-yl)piperidin-1-yl]-9H-purine-8-carboxamide]	< 50 nM
Cc1c(-c2nc3c(N4CCC(n5c(=O)[nH]c6ncccc65)CC4)ncnc3n2C)cnn1C [Compound 331, 1-{1-[8-(1,5-dimethyl-1H-pyrazol-4-yl)-9-methyl-9H-purin-6-yl]piperidin-4-yl}-1,3-dihydro-2H-imidazo[4,5-b]pyridin-2-one]	< 50 nM

The next lines start with the values.

IC50	SMILES
50 to 250 nM	Cc1nnc(-c2nc3c(N4CCC(n5c(=O)[nH]c6ccccc65)CC4)ncnc3n2C)n1C [Compound 332, 1-{1-[8-(4,5-dimethyl-4H-1,2,4-triazol-3-yl)-9-methyl-9H-purin-6-yl]piperidin-4-yl}-1,3-dihydro-2H-benzimidazol-2-one]
< 50 nM	Cc1ncc(-c2nc3c(N4CCC(n5c(=O)[nH]c6ccccc65)CC4)ncnc3n2C)n1C [Compound 333, 1-{1-[8-(1,2-dimethyl-1H-imidazol-5-yl)-9-methyl-9H-purin-6-yl]piperidin-4-yl)-1,3-dihydro-2H-benzimidazol-2-one]
< 50 nM	COC(=O)[C@@H]1CN(c2ncnc3c2nc(-c2cnn(C)c2)n3C)CC[C@H]1n1c(=O)[nH]c2ccccc21 [Compound 334, methyl (3R,4R)-1-[9-methyl-8-(1-methyl-1H-pyrazol-4-yl)-9H-purin-6-yl]-4-(2-oxo-2,3-dihydro-1H-benzimidazol-1-yl)piperidine-3-carboxylate]
50 to 250 nM	Cn1c(-c2cccnn2)nc2c(N3CCC(n4c(=O)[nH]c5ncccc54)CC3)ncnc21 [Compound 335, 1-[1-(9-methyl-8-pyridazin-3-yl-9H-purin-6-yl)piperidin-4-yl]-1,3-dihydro-2H-imidazo[4,5-b]pyridin-2-one]
< 50 nM	Cc1ncc(-c2nc3c(N4CCC(n5c(=O)[nH]c6ncccc65)CC4)ncnc3n2C)n1C [Compound 336, 1-{1-[8-(1,2-dimethyl-1H-imidazol-5-yl)-9-methyl-9H-purin-6-yl]piperidin-4-yl)-1,3-dihydro-2H-imidazo[4,5-b]pyridin-2-one]
< 50 nM	CCn1ncc(-c2nc3c(N4CCC(n5c(=O)[nH]c6ncccc65)CC4)ncnc3n2C)c1C [Compound 337, 1-{1-[8-(1-ethyl-5-methyl-1H-pyrazol-4-yl)-9-methyl-9H-purin-6-yl]piperidin-4-yl}-1,3-dihydro-2H-imidazo[4,5-b]pyridin-2-one]
50 to 250 nM	Cn1cc(-c2nc3c(N4CC[C@@H](n5c(=O)[nH]c6ccccc65)[C@H](CO)C4)ncnc3n2C)cn1 [Compound 338, 1-{(3R,4R)-3-(hydroxymethyl)-1-[9-methyl-8-(1-methyl-1H-pyrazol-4-yl)-9H-purin-6-yl]piperidin-4-yl}-1,3-dihydro-2H-benzimidazol-2-one]
500 to 1500 nM	Cn1c(CNC(=O)OC(C)(C)C)nc2c(N3CCC(n4c(=O)[nH]c5ccccc54)CC3)ncnc21 [Compound 339, 1,1-dimethylethyl ({9-methyl-6-[4-(2-oxo-2,3-dihydro-1H-benzimidazol-1-yl)piperidin-1-yl]-9H-purin-8-yl}methyl)carbamate]
< 50 nM	Cc1ncc(-c2nc3c(N4CCC(n5c(=O)[nH]c6ccccc65)CC4)ncnc3n2C)cn1 [Compound 340, 1-{1-[9-methyl-8-(2-methylpyrimidin-5-yl)-9H-purin-6-yl]piperidin-4-yl}-1,3-dihydro-2H-benzimidazol-2-one]
250 to 500 nM	Cn1cc(-c2nc3c(N4CCC(n5c(=O)[nH]c6cnccc65)CC4)ncnc3n2C)cn1 [Compound 341, 1-{1-[9-methyl-8-(1-methyl-1H-pyrazol-4-yl)-9H-purin-6-yl]piperidin-4-yl}-1,3-dihydro-2H-imidazo[4,5-c]pyridin-2-one]
< 50 nM	CCn1c(-c2cnc(C)nc2)nc2c(N3CCC(n4c(=O)[nH]c5ccccc54)CC3)ncnc21 [Compound 342, 1-{1-[9-ethyl-8-(2-methylpyrimidin-5-yl)-9H-purin-6-yl]piperidin-4-yl}-1,3-dihydro-2H-benzimidazol-2-one]
< 50 nM	Cn1c(-c2ccc(N)nc2)nc2c(N3CCC(n4c(=O)[nH]c5ncccc54)CC3)ncnc21 [Compound 343, 1-{1-[8-(6-aminopyridin-3-yl)-9-methyl-9H-purin-6-yl]piperidin-4-yl}-1,3-dihydro-2H-imidazo[4,5-b]pyridin-2-one]
< 50 nM	CCn1cc(-c2nc3c(N4CCC(n5c(=O)[nH]c6c(F)cccc65)CC4)ncnc3n2C)cn1 [Compound 344, 1-{1-[8-(1-ethyl-1H-pyrazol-4-yl)-9-methyl-9H-purin-6-yl]piperidin-4-yl}-4-fluoro-1,3-dihydro-2H-benzimidazol-2-one]
< 50 nM	CCn1ncc(-c2nc3c(N4CCC(n5c(=O)[nH]c6c(F)cccc65)CC4)ncnc3n2C)c1C [Compound 345, 1-{1-[8-(1-ethyl-5-methyl-1H-pyrazol-4-yl)-9-methyl-9H-purin-6-yl]piperidin-4-yl}-4-fluoro-1,3-dihydro-2H-benzimidazol-2-one]
